The text below walks through data of ChEMBL document CHEMBL5131473, “One-pot synthesis of oxoaporphines as potent antitumor agents and investigation of their mechanisms of actions” (Eur J Med Chem, 2022).

The source made the active and inactive calls. The rule behind the calls is not given here.

Data set [1] has as its system T-24. Description: Induction of apoptosis in human T24 cells assessed as viable cells at 10 uM incubated for 24 hrs by Annexin-V/PI staining based flow cytometry analysis (reference value: 94.3 %). It counts as functional. The settings on record: read-out: Activity.
Data set [2] deals with T-24. Description: Induction of apoptosis in human T24 cells assessed as early apoptotic cells at 15 uM incubated for 24 hrs by Annexin-V/PI staining based flow cytometry analysis (reference value: 3.27 %). It counts as functional.
The subject of data set [3] is T-24. Description: Induction of mitochondrial mediated apoptosis in human T24 cells assessed as decrease in Bcl-2 protein expression at 10 to 15 uM incubated for 24 hrs by Western blotting analysis. Type of data set: functional, cell-based. The settings on record: dose 10-15 µM.
Data set [4] has as its system T-24. Briefly: Induction of mitochondrial membrane potential dysfunction in human T24 cells assessed as disappearance of cristae at 10 uM incubated for 24 hrs by TEM analysis. It counts as functional, cell-based.
The subject of data set [5] is T-24. Description: Induction of apoptosis in human T24 cells assessed as increase in caspase 3 activity at 15 uM (Rvb= 3.1%). It counts as functional.
In data set [6] the test system is T-24. Briefly: Induction of Ca2+ production in human T24 cells assessed as increase in intracellular Ca2+ concentration at 10 uM by Fluo3-AM staining based fluorescence microscopic method. Type of data set: functional, cell-based.
The test system of data set [7] is T-24. Briefly: Induction of cell cycle arrest in human T24 cells assessed as increase in Cyclin B expression at 10 to 15 uM incubated for 24 hrs by chemiluminescence based Western blotting analysis. It counts as functional. The settings on record: dose 10-15 µM, DDE = dose-dependent effect. For orientation: In western blotting, separated proteins are transferred to a membrane and probed.

Data set [8] concerns T-24. Description: Induction of ROS accumulation in human T24 cells assessed as increase in intracellular ROS level at 10 uM by […] based flow cytometry. It counts as functional, cell-based. Background: In flow cytometry, cells or beads pass a laser one at a time.
The test system of data set [9] is T-24. Description: Induction of mitochondrial ROS generation in human T24 cells at 10 uM measured after 24 hrs by DCFH-DA staining based confocal microscopy method. Type of data set: functional, cell-based.
For data set [10], the system named is T-24. Description: Induction of apoptosis in human T24 cells assessed as increase in caspase 3 activity at 10 uM (Rvb= 3.1%). Type of data set: functional.
The test system of data set [11] is T-24. Briefly: Inhibition of colony formation in human T24 cells 0.2 to 10 uM incubated for 24 hrs and measured for 10 days. Type of data set: functional, cell-based. The following applies: dose 0.2-10 µM.
Data set [12] concerns T-24. Briefly: Induction of apoptosis in human T24 cells assessed as late apoptotic cells at 10 uM incubated for 24 hrs by Annexin-V/PI staining based flow cytometry analysis (reference value: 0.543 %). Type of data set: functional.
The test system of data set [13] is T-24. Description: Induction of apoptosis in human T24 cells assessed as late apoptotic cells at 20 uM incubated for 24 hrs by Annexin-V/PI staining based flow cytometry analysis (reference value: 0.543 %). It counts as functional.
The test system of data set [14] is T-24. Description: Induction of cell cycle arrest in human T24 cells assessed as accumulation of cells at G2/M phase at 15 uM incubated for 24 hrs by propidium iodide/RNase A staining based flow cytometry analysis (reference value: 5.82 %). Type of data set: functional.
Data set [15] concerns T-24. Briefly: Induction of apoptosis in human T24 cells assessed as necrotic cells at 10 uM incubated for 24 hrs by Annexin-V/PI staining based flow cytometry analysis (reference value: 1.92 %). Type of data set: functional.
The subject of data set [16] is T-24. Briefly: Inhibition of colony formation in human T24 cells upto 5 uM incubated for 24 hrs and measured for 10 days. The settings on record: up to 5 µM. Type of data set: functional.
For data set [17], the system named is T-24. Description: Induction of mitochondrial ROS generation in human T24 cells at 2 uM measured after 24 hrs by Mitotracker Red dye based confocal microscopy method. It counts as functional, cell-based.
Data set [18] deals with T-24. Description: Induction of mitochondrial membrane potential dysfunction in human T24 cells assessed as nuclear condensation at 2 to 4 uM by mito-tracker green dye based fluorescence microscopy. The settings on record: dose 2-4 µM. Type of data set: functional, cell-based.
The subject of data set [19] is T-24. Briefly: Induction of cell cycle arrest in human T24 cells assessed as accumulation of cells at G1 phase at 4 uM incubated for 24 hrs by propidium iodide/RNase A staining based flow cytometry analysis (reference value: 51.71 %). Type of data set: functional.
In data set [20] the test system is T-24. Description: Induction of ROS generation in human T24 cells at 2 uM by fluorescence microscopy. Type of data set: functional, cell-based.
The subject of data set [21] is T-24. Briefly: Induction of apoptosis in human T24 cells assessed as increase in caspase 3 activity at 4 uM (Rvb= 3.1%). Type of data set: functional.
The test system of data set [22] is T-24. Description: Induction of cell cycle arrest in human T24 cells assessed as upregulation of CDK2 expression at 2 to 4 uM incubated for 24 hrs by chemiluminescence based Western blotting analysis. It counts as functional. The following applies: dose 2-4 µM.
Data set [23] deals with T-24. Briefly: Induction of mitochondrial membrane potential dysfunction in human T24 cells assessed as mitochondrial fragment condensation at 2 to 4 uM by mito-tracker green dye based fluorescence microscopy. Type of data set: functional, cell-based. The settings on record: dose 2-4 µM.
A short description of data set [24]: Toxicity in human WI-38 cells assessed as wound closure at 1 uM measured after 24 hrs by fluorescence microscopy based wound healing assay. It counts as cell-based. The following applies: wi-38, 24 h.
For data set [25], the system named is T-24. Description: Induction of mitochondrial mediated apoptosis in human T24 cells assessed as decrease in Bcl-2 protein expression at 2 to 4 uM incubated for 24 hrs by Western blotting analysis. Type of data set: functional, cell-based. The following applies: dose 2-4 µM.
The test system of data set [26] is T-24. Description: Induction of apoptosis in human T24 cells assessed as contracted small fragmented nuclei at 2 uM by Hoechst33258 staining based fluorescence microscopy. Type of data set: functional, cell-based.
Data set [27] deals with T-24. Briefly: Induction of mitochondrial mediated apoptosis in human T24 cells assessed as upregulation of cytochrome c expression at 2 to 4 uM incubated for 24 hrs by Western blotting analysis. Type of data set: functional, cell-based. The following applies: dose 2-4 µM.
For data set [28], the system named is T-24. Description: Induction of cell cycle arrest in human T24 cells assessed as accumulation of cells at G1 phase at 1 uM incubated for 24 hrs by propidium iodide/RNase A staining based flow cytometry analysis (reference value: 51.71 %). Type of data set: functional.
Data set [29] deals with T-24. Briefly: Induction of mitochondrial mediated apoptosis in human T24 cells assessed as upregulation of apaf-1 expression at 0.5 to 1 uM incubated for 24 hrs by Western blotting analysis. It counts as functional, cell-based. The settings on record: dose 0.5-1 µM.
For data set [30], the system named is T-24. Description: Induction of DNA damage in human T24 cells assessed as DNA strand breakage by measuring comet formation at 0.5 uM incubated for 24 hrs by comet assay. Type of data set: functional, cell-based.
In data set [31] the test system is T-24. Description: Induction of cell cycle arrest in human T24 cells assessed as accumulation of cells at S phase at 0.5 uM incubated for 24 hrs by propidium iodide/RNase A staining based flow cytometry analysis (reference value: 42.47 %). Type of data set: functional.
Data set [32] has as its system T-24. Briefly: Induction of apoptosis in human T24 cells assessed as condensed chromatin at 0.5 uM by Hoechst33258 staining based fluorescence microscopy. Type of data set: functional, cell-based.
Data set [33] concerns T-24. Briefly: Induction of cell cycle arrest in human T24 cells assessed as increase in Cyclin B expression at 0.5 to 1 uM incubated for 24 hrs by chemiluminescence based Western blotting analysis. Type of data set: functional. The following applies: dose 0.5-1 µM, DDE = dose-dependent effect.
Data set [34] has as its system T-24. Description: Cytotoxicity against human T24 cells assessed as decrease in cell viability at 0.5 uM by MTT assay. It counts as functional, cell-based. The following applies: TDE = time-dependent effect. On the technique in general: Tetrazolium dyes change colour on reduction, which living cells bring about.
Data set [35] deals with T-24. Briefly: Induction of apoptosis in human T24 cells assessed as early apoptotic cells at 0.5 uM incubated for 24 hrs by Annexin-V/PI staining based flow cytometry analysis (reference value: 3.27 %). Type of data set: functional.
The test system of data set [36] is T-24. Briefly: Induction of apoptosis in human T24 cells assessed as viable cells at 1 uM incubated for 24 hrs by Annexin-V/PI staining based flow cytometry analysis (reference value: 94.3 %). Type of data set: functional. The settings on record: read-out: Activity.
In data set [37] the test system is T-24. Description: Inhibition of cell migration in human T24 cells assessed as recovery of wound area at 0.25 uM measured after 24 hrs by wound healing assay based fluorescence microscopy. Details: scale not given: the % may be the effect or the level left. Type of data set: functional.

In the case of `O=C1c2ccccc2-c2cccc3ccnc1c23`, in the data set on T-24 [1], the viability at 10 µM came out at 79.1%. Moreover, the Activity in the data set on T-24 [2] is 32.9%; with T-24 [5], 25.5%; with T-24 [7] it was “Dde”; with T-24 [10], 19.9%; in the data set with T-24 [12] it was 3.25%; in the data set on T-24 [13] it was 4.89%. The Activity in the data set on T-24 [14] worked out at 22.69%; in the data set with T-24 [15], 3.31%. Also, the result in the data set on T-24 [3], in the data set on T-24 [4], in the data set with T-24 [6], with T-24 [8] and in the data set on T-24 [9] was Active. The inhibition result in the data set with T-24 [11] was “Active”. In addition, the “inhibition (INH)” value in the data set on T-24 [16] is 100%.

With `O=C1c2cc([N+](=O)[O-])ccc2-c2ccc([N+](=O)[O-])c3ccnc1c23`, the outcome in the data set on T-24 [17], in the data set on T-24 [18], with T-24 [20], in the data set with T-24 [22], in the data set with T-24 [23] and in the data set with T-24 [25] was Active. Further, the result in the data set with T-24 [26] and in the data set on T-24 [27] was Active. Further, the Activity was 15.29% with T-24 [19], 28% in the data set on T-24 [21] and “Non-Toxic” in data set [24].

In the case of `O=C1c2ccccc2-c2ccc([N+](=O)[O-])c3ccnc1c23`, the Activity with T-24 [28] is 3.53%; in the data set on T-24 [31] it was 47.37%; in the data set on T-24 [33] it was “Dde”; in the data set on T-24 [34], “Tde”; with T-24 [35], 35.3%; with T-24 [37] it was 15.9%. Besides, the result with T-24 [29], in the data set with T-24 [30] and in the data set on T-24 [32] was Active. The viability at 1 µM in the data set with T-24 [36] came to 52.6%.
